For one data set, the target named is Histone deacetylase. The data set can be described thus: Inhibition of HDAC in human HeLa nuclear extract. Format: protein assay.
The target of data set [1] is T1, Histone deacetylase 1 (Homo sapiens, UniProt Q13547). The data set can be described thus: Inhibition of recombinant human HDAC1.
Data set [2] has as its target T2, Protein deacetylase HDAC6 (Homo sapiens, UniProt Q9UBN7).
T2 sequence (Q9UBN7 whole entry): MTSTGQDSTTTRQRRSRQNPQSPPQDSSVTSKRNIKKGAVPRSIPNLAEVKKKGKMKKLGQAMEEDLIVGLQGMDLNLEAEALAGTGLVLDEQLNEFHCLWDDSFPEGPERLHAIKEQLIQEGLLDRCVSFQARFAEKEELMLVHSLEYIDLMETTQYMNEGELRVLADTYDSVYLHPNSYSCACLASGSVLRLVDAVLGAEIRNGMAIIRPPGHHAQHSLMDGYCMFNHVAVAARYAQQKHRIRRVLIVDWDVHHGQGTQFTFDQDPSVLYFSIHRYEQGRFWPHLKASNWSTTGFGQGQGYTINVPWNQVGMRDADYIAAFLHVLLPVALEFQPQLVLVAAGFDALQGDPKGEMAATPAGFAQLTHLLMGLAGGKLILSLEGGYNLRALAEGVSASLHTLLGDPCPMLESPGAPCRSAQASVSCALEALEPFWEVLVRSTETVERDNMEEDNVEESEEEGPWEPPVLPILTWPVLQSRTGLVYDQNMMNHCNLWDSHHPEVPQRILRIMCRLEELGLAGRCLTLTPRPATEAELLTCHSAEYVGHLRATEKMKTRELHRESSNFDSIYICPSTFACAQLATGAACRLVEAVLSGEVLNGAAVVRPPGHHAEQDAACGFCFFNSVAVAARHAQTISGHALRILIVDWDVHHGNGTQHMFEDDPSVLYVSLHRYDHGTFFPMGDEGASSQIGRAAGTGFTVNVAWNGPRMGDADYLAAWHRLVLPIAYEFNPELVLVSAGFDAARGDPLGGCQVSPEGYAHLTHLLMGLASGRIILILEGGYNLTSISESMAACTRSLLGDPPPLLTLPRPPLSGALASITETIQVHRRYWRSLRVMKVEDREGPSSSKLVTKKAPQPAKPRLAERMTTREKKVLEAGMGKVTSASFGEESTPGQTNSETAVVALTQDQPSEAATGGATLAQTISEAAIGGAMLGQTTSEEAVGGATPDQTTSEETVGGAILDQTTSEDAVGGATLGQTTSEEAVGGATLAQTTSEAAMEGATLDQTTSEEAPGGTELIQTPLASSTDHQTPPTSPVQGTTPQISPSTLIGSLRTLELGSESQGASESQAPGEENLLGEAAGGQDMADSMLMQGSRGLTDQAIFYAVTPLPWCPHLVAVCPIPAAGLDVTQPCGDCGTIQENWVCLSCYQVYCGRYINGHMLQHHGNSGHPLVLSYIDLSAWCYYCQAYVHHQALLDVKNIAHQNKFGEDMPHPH
The data set can be described thus: Inhibition of recombinant human HDAC6.

The nature of data set [3]: Retention time of the compound. Format: physicochemical.
Data set [4] has as its target T1, Histone deacetylase 1. The data set can be described thus: Inhibition of HDAC1 (unknown origin).
The next data set deals with Histone deacetylase 2 (Homo sapiens, UniProt Q92769). Nature of the data set: Inhibition of HDAC2 (unknown origin).
Another data set addresses Histone deacetylase 3 (Homo sapiens, UniProt O15379). The data set can be described thus: Inhibition of HDAC3 (unknown origin).
For a further data set, the target named is Histone deacetylase 4 (Homo sapiens, UniProt P56524). The data set can be described thus: Inhibition of HDAC4 (unknown origin).
The target of data set [5] is T2, Protein deacetylase HDAC6. Nature of the data set: Inhibition of HDAC6 (unknown origin).
The next data set addresses T3, Histone deacetylase 8 (Homo sapiens, UniProt Q9BY41).
T3 sequence (Q9BY41 whole entry): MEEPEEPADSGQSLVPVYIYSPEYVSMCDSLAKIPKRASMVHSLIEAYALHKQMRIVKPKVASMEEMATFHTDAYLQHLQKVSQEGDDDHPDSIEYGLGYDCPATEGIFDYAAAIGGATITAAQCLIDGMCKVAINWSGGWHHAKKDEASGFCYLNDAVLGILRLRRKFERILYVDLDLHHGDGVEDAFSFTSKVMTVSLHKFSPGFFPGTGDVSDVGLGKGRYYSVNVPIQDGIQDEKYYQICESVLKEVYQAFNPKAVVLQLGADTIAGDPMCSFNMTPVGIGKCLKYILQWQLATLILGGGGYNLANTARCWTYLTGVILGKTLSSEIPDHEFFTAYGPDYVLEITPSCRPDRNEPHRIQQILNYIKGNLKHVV
The data set can be described thus: Inhibition of HDAC8 (unknown origin).

In ChEMBL document CHEMBL3758139, “Novel thiol-based histone deacetylase inhibitors bearing 3-phenyl-1H-pyrazole-5-carboxamide scaffold as surface recognition motif: Design, synthesis and SAR study” (Bioorg Med Chem Lett, 2016) one finds IC50 and Retention_time data, which are given here for seven molecules.

T1 sequence (Q13547 whole entry): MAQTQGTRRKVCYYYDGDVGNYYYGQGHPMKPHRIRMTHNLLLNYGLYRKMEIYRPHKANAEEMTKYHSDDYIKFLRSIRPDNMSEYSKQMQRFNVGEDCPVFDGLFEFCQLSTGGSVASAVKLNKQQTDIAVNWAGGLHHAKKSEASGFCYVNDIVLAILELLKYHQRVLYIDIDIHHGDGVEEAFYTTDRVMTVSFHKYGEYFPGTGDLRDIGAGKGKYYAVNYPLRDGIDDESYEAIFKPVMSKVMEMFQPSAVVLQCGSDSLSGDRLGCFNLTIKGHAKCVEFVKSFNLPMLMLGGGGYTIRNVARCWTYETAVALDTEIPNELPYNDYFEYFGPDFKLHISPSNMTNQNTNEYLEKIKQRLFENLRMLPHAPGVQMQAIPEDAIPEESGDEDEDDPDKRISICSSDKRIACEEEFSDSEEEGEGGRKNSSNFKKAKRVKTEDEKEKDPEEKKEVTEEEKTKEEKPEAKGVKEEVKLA
Sequence of Histone deacetylase 3 (O15379 whole entry): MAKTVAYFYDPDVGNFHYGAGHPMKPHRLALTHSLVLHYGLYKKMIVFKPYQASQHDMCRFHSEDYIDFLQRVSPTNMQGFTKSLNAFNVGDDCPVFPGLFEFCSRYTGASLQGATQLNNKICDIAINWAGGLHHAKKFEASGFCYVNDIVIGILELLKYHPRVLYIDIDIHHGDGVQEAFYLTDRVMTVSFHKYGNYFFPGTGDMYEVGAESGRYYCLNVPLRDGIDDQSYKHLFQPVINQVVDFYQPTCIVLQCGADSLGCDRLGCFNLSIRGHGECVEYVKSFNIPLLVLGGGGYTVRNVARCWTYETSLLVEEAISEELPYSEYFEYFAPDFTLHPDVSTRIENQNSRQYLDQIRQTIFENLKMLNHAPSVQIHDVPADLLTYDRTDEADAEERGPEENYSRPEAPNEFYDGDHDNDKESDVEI
Sequence of Histone deacetylase 4 (P56524 whole entry): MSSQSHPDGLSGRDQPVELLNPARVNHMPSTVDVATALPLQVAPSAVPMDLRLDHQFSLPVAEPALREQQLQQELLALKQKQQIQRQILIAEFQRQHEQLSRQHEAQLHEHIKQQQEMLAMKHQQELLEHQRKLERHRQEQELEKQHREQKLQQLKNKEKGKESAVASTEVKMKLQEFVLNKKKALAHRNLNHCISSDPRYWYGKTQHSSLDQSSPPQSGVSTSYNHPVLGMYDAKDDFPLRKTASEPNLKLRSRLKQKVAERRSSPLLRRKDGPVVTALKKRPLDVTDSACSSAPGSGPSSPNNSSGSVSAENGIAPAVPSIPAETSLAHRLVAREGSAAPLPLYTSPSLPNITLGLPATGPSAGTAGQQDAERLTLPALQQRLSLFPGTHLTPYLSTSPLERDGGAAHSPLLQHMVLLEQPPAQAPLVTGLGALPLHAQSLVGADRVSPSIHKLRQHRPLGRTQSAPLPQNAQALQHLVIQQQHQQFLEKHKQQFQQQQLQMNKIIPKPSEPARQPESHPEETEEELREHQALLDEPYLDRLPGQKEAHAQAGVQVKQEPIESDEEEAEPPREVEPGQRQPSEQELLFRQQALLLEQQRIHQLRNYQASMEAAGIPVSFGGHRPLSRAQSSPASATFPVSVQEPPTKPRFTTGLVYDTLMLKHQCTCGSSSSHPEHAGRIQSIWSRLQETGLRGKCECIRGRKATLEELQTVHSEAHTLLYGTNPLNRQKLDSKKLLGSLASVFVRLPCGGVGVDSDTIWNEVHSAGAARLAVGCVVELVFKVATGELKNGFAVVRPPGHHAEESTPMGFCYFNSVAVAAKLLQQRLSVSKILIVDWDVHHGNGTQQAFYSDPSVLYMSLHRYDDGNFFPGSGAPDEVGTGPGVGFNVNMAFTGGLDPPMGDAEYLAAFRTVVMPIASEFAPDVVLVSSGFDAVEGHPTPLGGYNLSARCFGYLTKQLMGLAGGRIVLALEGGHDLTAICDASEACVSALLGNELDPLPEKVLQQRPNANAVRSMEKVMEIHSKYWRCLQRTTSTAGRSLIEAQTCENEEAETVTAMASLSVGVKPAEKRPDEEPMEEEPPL
Sequence of Histone deacetylase 2 (Q92769 whole entry): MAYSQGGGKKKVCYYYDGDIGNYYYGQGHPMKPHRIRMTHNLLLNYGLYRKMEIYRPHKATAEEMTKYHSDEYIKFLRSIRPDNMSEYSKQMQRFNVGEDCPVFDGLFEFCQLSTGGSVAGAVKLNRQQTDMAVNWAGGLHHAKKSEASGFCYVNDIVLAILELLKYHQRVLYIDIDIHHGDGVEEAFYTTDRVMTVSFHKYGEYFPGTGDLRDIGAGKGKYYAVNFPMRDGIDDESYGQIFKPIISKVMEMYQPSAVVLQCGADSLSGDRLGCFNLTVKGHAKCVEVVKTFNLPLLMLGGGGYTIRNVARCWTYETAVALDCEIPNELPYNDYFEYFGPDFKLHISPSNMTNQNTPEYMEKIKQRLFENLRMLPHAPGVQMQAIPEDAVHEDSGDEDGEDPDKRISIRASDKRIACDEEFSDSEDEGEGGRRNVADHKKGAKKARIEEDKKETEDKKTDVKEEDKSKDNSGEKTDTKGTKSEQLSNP

With `O=C(NCCCCCCS)c1cc(-c2ccc(F)cc2)on1`, the IC50 (as a rule, the midpoint of a concentration-inhibition curve) against Histone deacetylase stood at 0.98 µM; on Histone deacetylase 1 [1] it was 0.85 µM; in data set [2] it was 0.88 µM. Moreover, the Retention_time in data set [3] amounted to 5.67 min.

As for `O=C(CCS)NCCCCNC(=O)c1cc(-c2ccc(F)cc2)[nH]n1`, the IC50 (against Histone deacetylase; on Histone deacetylase 1 [1]; in [2]) was greater than 10 µM throughout. In [3], this molecule gave a Retention_time of 2.54 min.

For the molecule `CC(=O)SCCCCCCNC(=O)c1cc(-c2ccc(F)cc2)nn1C`, the IC50 against Histone deacetylase 1 [4] is 0.021 µM; on Histone deacetylase 2 it was 0.14 µM; on Histone deacetylase 3, 0.068 µM; on Histone deacetylase 4, 10 µM; in data set [5], 10 µM; at Histone deacetylase 8, 4.2 µM.

As to `O=C(O)CCCn1nc(-c2ccc(F)cc2)cc1C(=O)NCCCCCCS`, the IC50 against Histone deacetylase worked out at 0.08 µM; on Histone deacetylase 1 [1], 0.13 µM; in data set [2], 0.09 µM. The molecule further showed a Retention_time in data set [3] of 13.54 min.

`O=C(NCCCCCCS)c1cc(-c2ccc(F)cc2)nn1Cc1ccccc1`: the IC50 (against Histone deacetylase; on Histone deacetylase 1 [1]; in [2]) was greater than 10 µM throughout. This molecule also displayed a Retention_time in [3] of 7.52 min.

For `Cn1nc(-c2ccc(F)cc2)cc1C(=O)NCCCCCCS`, the IC50 at Histone deacetylase is 3.2 µM; on Histone deacetylase 1 [1] it was greater than 10 µM; in [2] it was 2.9 µM. The molecule further had a Retention_time in data set [3] of 5.16 min.

Consider `Cc1c(-c2ccc(F)cc2)nn(CCCO)c1C(=O)NCCCCCCS`, for which the IC50 was greater than 10 µM on Histone deacetylase, greater than 10 µM at Histone deacetylase 1 [1] and 5 µM in data set [2]. In [3], this molecule displayed a Retention_time of 3.71 min.
